In patent EP4608400B1, “COMPOUND FOR TREATMENT OF PAIN” (Initiator Pharma A/S, priority 2022, dated 2024):
Like-named read-outs stand apart in the source and are kept apart here.

Assays:
[1] = Phase I ascending single oral dose study: pharmacokinetics; assay type: in vivo, human; details: for Tmax / half-life: human, in vivo, po; for Tmax: single oral dose, postdose
Protocol: Study design. The study was a Phase I, randomised, double-blind, placebo-controlled, ascending single oral dose, safety, tolerability, pharmacokinetic (PK) and pharmacodynamics (PD) study of IP2015 in healthy male subjects.
Each subject received one oral dose of IP2015 or matched placebo. […] The dose level was to be escalated to a maximum of 0.05 mg in Cohort 2 and a maximum of 0.2 mg in Cohort 3. The doses in the remaining five cohorts were to be determined based on the dose escalation criteria.
Subjects were required to attend the clinical research unit (CRU) for a screening visit within 28 days prior to dosing. […] All subjects remained in the CRU until Day 3 (48 hours postdose) for the collection of safety assessments, PK blood and urine samples, and CNS assessments.
Study Drug, Dose and Mode of Administration. IP2015 and matched placebo were provided as a powder in bottles for oral solution. […] Reconstitution was performed by a pharmacist at the clinical site prior to dosing.
The dose was taken with 240 mL of water at room temperature. Subjects/participants were fasted overnight prior to dosing until 4 hours postdose. Water was allowed ad libitum except for 1 hour before and 1 hour after dosing.
The doses used in each cohort were as follows: • Cohort 1 - 0.01 mg • Cohort 2 - 0.05 mg • Cohort 3 - 0.2 mg • Cohort 4 - 0.6 mg • Cohort 5 - 1.8 mg • Cohort 6 - 5.4 mg • Cohort 7 - 16.2 mg • Cohort 8 - 10 mg
The study also evaluated plasma PK concentrations and parameters including but not limited to: area under the plasma concentration vs time curve (AUC), from time zero to the last quantifiable concentration (AUC0-t), AUC from zero to infinity (AUC0-∞), observed maximum plasma concentration (Cmax), time to reach maximum plasma concentration (tmax) and terminal elimination half-life (T1/2) in healthy male subjects.
Statistical methods. Safety parameters were listed and summarised using descriptive statistics. Pharmacokinetic parameter estimates were calculated using noncompartmental methods. Pharmacokinetic data were listed for each subject/patient and summarised by descriptive statistics.
Dose proportionality was analysed for Part A with a linear regression model using the logarithm of a PK parameter as responsible variable and the logarithm of the dose as the independent variable. The linear regression model can be expressed as: Log(yi) = α + β*log dosei + εi [formula] where α is the intercept, dosei is the actual dose of IP2015 for the ith subject and εi is the (within subject) random error in observing yi.
The above model was applied to the following PK parameters; AUC0-t, AUC0-∞ and Cmax. Based on the linear regression model, the dose proportionality coefficient (slope) and its two-sided 90% confidence interval (CI) were estimated. Dose proportionality was declared if the 90% CI for the slope was completely contained in the following range16: 1+log(0.5)/log(r), 1+log(2)/log(r), where r is the high dose/low dose.

[2] = Phase I crossover study, intradermal capsaicin model: safety evaluation (TEAEs); assay type: in vivo, human
Protocol: In order to maintain the blind, a double dummy approach was used.
Safety was assessed through AE reporting, 12-lead ECG, vital signs, physical examinations and clinical laboratory evaluations. Pharmacokinetics was assessed by blood sampling.

[3] = target: T1, dopamine transporter (DAT) (Homo sapiens, UniProt Q01959); test: Inhibition of human transporter in stable epithelial cell lines (DAT); assay type: cell-based; details: average of two replicates (n=2)
T1 construct: expressed in transfected cells
T1 sequence (Q01959 whole entry): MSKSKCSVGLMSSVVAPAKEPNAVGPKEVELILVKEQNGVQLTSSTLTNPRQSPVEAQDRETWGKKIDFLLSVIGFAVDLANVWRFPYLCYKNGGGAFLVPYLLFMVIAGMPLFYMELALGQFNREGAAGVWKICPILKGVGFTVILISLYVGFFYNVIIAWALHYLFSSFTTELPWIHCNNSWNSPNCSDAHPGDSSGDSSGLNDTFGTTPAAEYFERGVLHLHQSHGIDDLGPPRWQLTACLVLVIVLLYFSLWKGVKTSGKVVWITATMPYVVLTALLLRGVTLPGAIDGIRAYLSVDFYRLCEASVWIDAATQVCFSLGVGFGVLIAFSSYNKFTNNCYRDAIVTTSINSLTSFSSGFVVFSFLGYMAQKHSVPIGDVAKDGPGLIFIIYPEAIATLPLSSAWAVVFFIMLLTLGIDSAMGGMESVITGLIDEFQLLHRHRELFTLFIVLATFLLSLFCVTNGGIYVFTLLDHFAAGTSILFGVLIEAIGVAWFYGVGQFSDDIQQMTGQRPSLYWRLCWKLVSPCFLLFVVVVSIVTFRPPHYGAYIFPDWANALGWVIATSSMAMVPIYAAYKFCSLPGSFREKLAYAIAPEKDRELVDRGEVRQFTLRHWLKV
Protocol: Compounds were tested for their ability to inhibit the reuptake of the monoamine neurotransmitters dopamine (DA), noradrenaline (NA), and serotonin (5-HT) in synaptosomes as described in WO 97/16451 (NeuroSearch A/S). In addition, the compounds were tested in human epithelial cells expressing human transporters for 5-HT (SERT), dopamine (DAT), and norepinephrine (NET).
The results are the average of two-replicates per experiment (n=2).

In the case of `COc1cc2ccc(O[C@@H]3C[C@H]4CC[C@@H](C3)N4)cc2oc1=O` [IP2015, exo-7-[(8-azabicyclo[3.2.1]octan-3-yl)oxy]-3-methoxy-chromen-2-one], the “Plasma concentrations of IP2015” value ([1]; 0.01 mg and 0.05 mg single oral dose, all subjects) is reported as “below the LLOQ”, the “subjects with plasma concentrations below the LLOQ” value ([1]; 0.2 mg single oral dose) is reported as 3/7 and the Tmax ([1]; read-out: tmax (range across all dose levels)) is reported as 1 to 6 h. For the same compound, the Tmax ([1]; range of medians across doses, read-out: Median tmax) was 2.25 to 5 h, the half-life ([1]; 0.6 mg, calculated for 1/6 subjects, read-out: mean t½ (converted)) was 14.5 h and the half-life ([1]; 1.8 mg, calculated for 3/6 subjects, read-out: mean t½ (converted)) was 16.1 h. For the same compound, the half-life ([1]; 5.4 mg to 16.2 mg doses, range of means, read-out: mean T½) was 23.1 to 26.3 h, the “severity of all TEAEs” value ([2]; 5 mg IP2015 and 10 mg IP2015) was “mild” and the “incidence of TEAEs (share of subjects)” value ([2]; 5 mg IP2015 single oral dose) was 29.2%. The “number of TEAEs reported” value ([2]; 5 mg IP2015 single oral dose) was 10 events, the “subjects reporting TEAEs” value ([2]; 5 mg IP2015 single oral dose) was 7 subjects and the “incidence of TEAEs (share of subjects)” value ([2]; 10 mg IP2015 single oral dose) was 54.2%. For the same compound, the “number of TEAEs reported” value ([2]; 10 mg IP2015 single oral dose) was 19 events, the “subjects reporting TEAEs” value ([2]; 10 mg IP2015 single oral dose) was 13 subjects and the IC50 [3] was 1.44 nM.
